From patent publication US20050221501A1, “Dissolution method” (priority 2003, published 2005)

Assays:
[1] = aqueous dissolution medium containing 4% sodium lauryl sulfate, in 60 minutes; cited from earlier work
[2] = pH-dependent aqueous solubility of the Agent; format: physicochemical; conditions: free-base form
[3] = Biopharmaceutics Classification System (BCS) classification; format: physicochemical
Excerpt: Under the BCS system Class II compounds are sparingly soluble with high permeability.

COC1=CC(=O)C[C@@H](C)[C@]12Oc1c(Cl)c(OC)cc(OC)c1C2=O [Griseofluvin]
% dissolution [1]: at least 75%

COc1cc2ncnc(Nc3ccc(F)c(Cl)c3)c2cc1OCCCN1CCOCC1 [Agent, 4-(3′-chloro-4′-fluoroanilino)-7-methoxy-6-(3-morpholinopropoxy)quinazoline]
solubility ([2]; above pH 7): very low solubility
ml of aqueous solvent required to dissolve 1 g of Agent ([2]; pH 6): ≥ 10000 mL
BCS class [3]: Class II
